# Assay results as given in publication PMC12064818, “A general assay platform to study protein pharmacology using ligand-dependent structural dynamics” (Nature Communications, 2025).
# Molecular target: T1, FLuc-C-HiBiT (Photinus pyralis, UniProt P08659)
# T1 construct: firefly luciferase with C-terminal HiBiT tag, E. coli expressed
# Assay: biochemical
# Details: enzyme activity, 10 uM ATP; read-out: IC50 or SDR50 (mM) / FLuc E
# T1 sequence (P08659 whole entry, looked up): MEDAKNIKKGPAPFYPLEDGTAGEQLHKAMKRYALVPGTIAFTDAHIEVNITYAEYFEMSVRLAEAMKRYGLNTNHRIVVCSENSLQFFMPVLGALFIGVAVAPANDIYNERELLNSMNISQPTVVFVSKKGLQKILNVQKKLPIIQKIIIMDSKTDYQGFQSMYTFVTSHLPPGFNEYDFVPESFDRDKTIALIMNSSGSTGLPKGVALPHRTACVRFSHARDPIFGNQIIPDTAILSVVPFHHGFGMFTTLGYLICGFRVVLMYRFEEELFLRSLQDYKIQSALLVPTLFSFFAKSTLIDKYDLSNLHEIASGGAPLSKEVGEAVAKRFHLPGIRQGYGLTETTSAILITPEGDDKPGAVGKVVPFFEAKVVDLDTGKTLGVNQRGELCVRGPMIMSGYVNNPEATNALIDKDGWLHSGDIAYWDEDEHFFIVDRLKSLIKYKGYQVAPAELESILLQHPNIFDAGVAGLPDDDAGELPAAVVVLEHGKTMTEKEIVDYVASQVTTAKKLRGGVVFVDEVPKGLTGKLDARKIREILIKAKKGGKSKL
row,Structure (SMILES),IC50
1,Cc1ccc(-n2ncc3c(N4CCCCC4)ncnc32)cc1 [NCGC00139024-01],197 nM
2,Cc1ccc(-n2ncc3c(N(C)Cc4ccccc4)ncnc32)cc1 [NCGC00139028-01],1570 nM
3,CC1CCN(c2ncnc3c2cnn3-c2ccc(F)cc2)CC1 [NCGC00139049-01],11100 nM
4,CC1CCCN(c2ncnc3c2cnn3-c2ccc(F)cc2)C1 (centres unmarked) [NCGC00139051-01],700 nM
5,Fc1ccc(-n2ncc3c(N4CCC(Cc5ccccc5)CC4)ncnc32)cc1 [NCGC00139053-01],> 30000 nM
6,Cc1ccc(-n2ncc3c(N4CCC(C(N)=O)CC4)ncnc32)cc1 [NCGC00139056-01],12400 nM
7,COCC(C)Nc1ncnc2c1cnn2-c1cccc(Cl)c1 (centres unmarked) [NCGC00139080-01],11100 nM
8,Cc1ccc(-n2ncc3c(NC4CCCCC4)ncnc32)cc1C [NCGC00139081-01],1760 nM
9,CCN(c1ncnc2c1cnn2-c1cccc(Cl)c1)C1CCCCC1 [NCGC00139112-01],5560 nM
10,Cc1ccc(-n2ncc3c(N4CCC(C)CC4)ncnc32)cc1C [NCGC00139121-01],4950 nM
11,Cc1ccc(-n2ncc3c(N4CCC(Cc5ccccc5)CC4)ncnc32)cc1C [NCGC00139123-01],> 30000 nM
12,Clc1cccc(-n2ncc3c(N4CCC(Cc5ccccc5)CC4)ncnc32)c1 [NCGC00139124-01],> 30000 nM
13,Clc1cccc(-n2ncc3c(N4CCCCC4)ncnc32)c1 [NCGC00139126-01],989 nM
14,Cc1ccc(-n2ncc3c(NC4CCCCC4)ncnc32)cc1Cl [NCGC00139149-01],2790 nM
15,NC(=O)C1CCN(c2ncnc3c2cnn3-c2cccc(Cl)c2)CC1 [NCGC00139154-01],> 30000 nM
16,Cc1cccc(-n2ncc3c(N4CCCCCC4)ncnc32)c1 [NCGC00139171-01],881 nM
17,CCOC(=O)C1CCCN(c2ncnc3c2cnn3-c2ccc(C)c(Cl)c2)C1 (centres unmarked) [NCGC00139179-01],> 30000 nM
18,Cc1ccc(-n2ncc3c(N4CCCCCC4)ncnc32)cc1Cl [NCGC00139187-01],700 nM
19,Cc1ccc(-n2ncc3c(N(C)C)ncnc32)cc1Cl [NCGC00139189-01],2210 nM
20,Cc1ccc(-n2ncc3c(N4CCCCC4)ncnc32)cc1Cl [NCGC00139209-01],785 nM
21,Clc1ccc(-n2ncc3c(NC4CCCC4)ncnc32)cc1 [NCGC00139250-01],1240 nM
22,COc1ccc(-n2ncc3c(NC4CCCC4)ncnc32)cc1 [NCGC00139254-01],1760 nM
23,O=[S+]([O-])(c1cccc(C(F)(F)F)c1)n1c(/C=C/c2ccccc2)nc2ccccc21 [NCGC00139418-01],556 nM

row,Structure (SMILES),IC50
1,Cc1ccc(/C=C/c2nc3ccccc3[nH]2)cc1 [NCGC00139422-01],44.2 nM
2,O=[S+]([O-])(c1cccc(Cl)c1)n1c(/C=C/c2ccccc2Cl)nc2ccccc21 [NCGC00139448-01],176 nM
3,CSc1ccc(/C=C/c2nc3ccccc3n2[S+](=O)([O-])c2ccc(F)c(C)c2)cc1 [NCGC00139450-01],700 nM
4,Cc1cccc(N2CCN(C(=O)CSCc3ccc(F)cc3)CC2)c1C [NCGC00140140-01],> 30000 nM
5,Cc1ccc(/C=C/c2nc3ccccc3n2S(=O)(=O)c2cccc(Cl)c2)cc1 [NCGC00140605-01],124 nM
6,Cc1ccc(/C=C/c2nc3ccccc3n2S(=O)(=O)c2ccc(Br)cc2)cc1 [NCGC00140607-01],624 nM
7,CCc1ccc(C2=CC(c3cccc(C)c3)n3c(nc4ccccc43)N2)cc1 (centres unmarked) [NCGC00140745-01],881 nM
8,Cc1ccc(C2=CC(c3ccccc3C)n3c(nc4ccccc43)N2)cc1 (centres unmarked) [NCGC00140747-01],4420 nM
9,CC(C)c1ccc(C2=CC(c3ccc(C(C)C)cc3)n3nnnc3N2)cc1 (centres unmarked) [NCGC00140789-01],> 30000 nM
10,CCOC(=O)N1CCc2c(sc(NCc3cccc(F)c3)c2C(=O)Nc2ccc(OC)cc2OC)C1 [NCGC00140797-01],2480 nM
11,CCOC(=O)N1CCc2c(sc(NCc3cccs3)c2C(=O)Nc2ccc(OC)cc2OC)C1 [NCGC00140799-01],3130 nM
12,CCOC(=O)N1CCc2c(sc(NCc3sccc3C)c2C(=O)Nc2ccc(OC)cc2OC)C1 [NCGC00140803-01],4950 nM
13,CCOC(=O)N1CCc2c(sc(NCc3ccc(OCC)cc3)c2C(=O)Nc2ccc(OC)cc2OC)C1 [NCGC00140805-01],3940 nM
14,Cc1ccc(C2=CC(c3ccccc3F)n3c(nc4ccccc43)N2)cc1C (centres unmarked) [NCGC00140809-01],3130 nM
15,COc1ccc(NC(=O)c2cc3ccccc3o2)c(OC)c1 [NCGC00141077-01],4950 nM
16,COc1ccc(-c2nc3ccccc3s2)cc1NC(=O)c1cccc(F)c1 [NCGC00141116-01],> 30000 nM
17,COc1ccc(-c2nc3ccccc3s2)cc1NC(C)=O [NCGC00141118-01],6240 nM
18,Cc1ccc(-c2nnc(SCc3ccccc3)o2)cc1 [NCGC00141131-01],11100 nM
19,COc1ccccc1OCc1nc2ccccc2n1Cc1ccccc1 [NCGC00141136-01],14000 nM
20,Cc1ccc(-c2cc(N)n(-c3ccc(C)cc3)n2)cc1 [NCGC00141302-01],9890 nM
21,Cc1c(C(=O)Nc2ccc(C(=O)O)cc2)nnn1-c1ccccc1 [NCGC00141304-01],78.5 nM
22,Cc1ccc2nc(-c3ccc(NC(=O)c4ccccc4S(C)(=O)=O)cc3)sc2c1 [NCGC00141658-01],11100 nM
23,O=C(Nc1nc2c(F)cccc2s1)c1ccc2c(c1)OCCO2 [NCGC00141660-01],495 nM

row,Structure (SMILES),IC50
1,O=C(Nc1c(C(=O)O)oc2ccccc12)c1ccc(C(F)(F)F)cc1 [NCGC00141808-01],9890 nM
2,NC(=O)C1CCN(c2ncnc3c2cnn3-c2ccccc2)CC1 [NCGC00141852-02],> 30000 nM
3,CCN(CC)CCOc1ccc(-c2nc3cc(Cl)ccc3s2)cc1 [NCGC00160568-01],25400 nM
4,Cn1cc(/C=C2\C(=O)Nc3cccnc32)c2ccccc21 [NCGC00161398-03],9890 nM
5,Cc1ccc2nc(-c3ccc(/N=N/c4cc(S(=O)(=O)O)c5ccccc5c4O)cc3)sc2c1S(=O)(=O)O [NCGC00161973-01],12400 nM
6,C=C1[C@H](CO)[C@@H](O)C[C@@H]1n1cnc2c(=O)[nH]c(N)nc21 [NCGC00164563-11],> 30000 nM
7,CCc1nn2c(-c3ccco3)ccnc2c1-c1ccc(F)cc1 [NCGC00164922-01],7850 nM
8,Clc1ccc2c(c1)-n1cc(-c3ccccc3)nc1CO2 [NCGC00164952-01],> 30000 nM
9,Nc1ccc(-c2nc3ccccc3s2)cc1 [NCGC00165328-03],1760 nM
10,CC[n+]1c(/C=C/N(C)c2ccccc2)n(-c2ccccc2)c2ccc(-c3nc4ccccc4s3)cc21 [NCGC00165744-02],17600 nM
11,CNc1ccc(-c2nc3ccccc3s2)cc1 [NCGC00165760-02],78.5 nM
12,Nc1nccc(-c2c(-c3ccc(F)cc3)ncn2C2CCNCC2)n1 [NCGC00165900-01],> 30000 nM
13,COc1ccc(OC)c(-c2nc3ccc(OC)cc3s2)c1 [NCGC00167604-01],8810 nM
14,COc1ccc2nc(-c3ccc(Oc4ccccc4)cc3)sc2c1 [NCGC00167605-01],11100 nM
15,C=Cc1ccc(-c2nc3ccc(OC)cc3s2)cc1 [NCGC00167606-01],442 nM
16,COc1ccc2nc(-c3cccc(C(C)=O)c3)sc2c1 [NCGC00167608-01],1240 nM
17,COc1ccc2nc(-c3ccc(N4CCN(C(=O)OC(C)(C)C)CC4)cc3)sc2c1 [NCGC00167609-02],14000 nM
18,CN(C(=O)OC(C)(C)C)c1ccc(-c2nc3ccccc3s2)cc1 [NCGC00167619-02],98.9 nM
19,CC(=O)c1cccc(-c2nc3ccccc3s2)c1 [NCGC00167620-01],9890 nM
20,c1ccc(COc2cccc(-c3nc4ccccc4s3)c2)cc1 [NCGC00167622-01],4950 nM
21,c1ccc(COc2ccccc2-c2nc3ccccc3s2)cc1 [NCGC00167623-01],12400 nM
22,FC(F)(F)c1cc(-c2nc3ccccc3s2)cc(C(F)(F)F)c1 [NCGC00167627-01],12400 nM
23,O=C(O)c1ccc(-c2noc(-c3ccccc3F)n2)cc1 [NCGC00168096-02],197 nM

row,Structure (SMILES),IC50
1,O=C(O)c1ccc(-c2noc(-c3cccc(F)c3)n2)cc1 [NCGC00168097-02],4950 nM
2,O=C(O)c1ccc(-c2noc(-c3ccc(F)cc3)n2)cc1 [NCGC00168098-01],442 nM
3,O=C(O)c1ccc(-c2noc(-c3ccccc3Cl)n2)cc1 [NCGC00168099-01],1110 nM
4,O=C(O)c1ccc(-c2noc(-c3cccc(Cl)c3)n2)cc1 [NCGC00168100-03],7000 nM
5,O=C(O)c1ccc(-c2noc(-c3ccc(Cl)cc3)n2)cc1 [NCGC00168101-01],785 nM
6,COc1ccccc1-c1nc(-c2ccc(C(=O)O)cc2)no1 [NCGC00168102-02],1970 nM
7,COc1ccc(-c2nc(-c3ccc(C(=O)O)cc3)no2)cc1 [NCGC00168104-02],111 nM
8,O=C(O)c1ccc(-c2noc(-c3ccccc3C(F)(F)F)n2)cc1 [NCGC00168105-01],12400 nM
9,O=C(O)c1ccc(-c2noc(-c3cccc(C(F)(F)F)c3)n2)cc1 [NCGC00168106-02],8810 nM
10,O=C(O)c1ccc(-c2noc(-c3ccc(C(F)(F)F)cc3)n2)cc1 [NCGC00168758-01],313 nM
11,O=C(O)c1cccc(-c2noc(-c3ccccc3F)n2)c1 [NCGC00168759-10],6.24 nM
12,O=C(O)c1cccc(-c2noc(-c3cccc(F)c3)n2)c1 [NCGC00168760-01],7 nM
13,O=C(O)c1cccc(-c2noc(-c3ccc(F)cc3)n2)c1 [NCGC00168761-01],4.42 nM
14,O=C(O)c1cccc(-c2noc(-c3ccccc3Cl)n2)c1 [NCGC00168762-01],3.51 nM
15,O=C(O)c1cccc(-c2noc(-c3cccc(Cl)c3)n2)c1 [NCGC00168763-01],7 nM
16,O=C(O)c1cccc(-c2noc(-c3ccc(Cl)cc3)n2)c1 [NCGC00168764-01],2.21 nM
17,COc1ccccc1-c1nc(-c2cccc(C(=O)O)c2)no1 [NCGC00168765-01],6.24 nM
18,COc1cccc(-c2nc(-c3cccc(C(=O)O)c3)no2)c1 [NCGC00168766-01],3.94 nM
19,COc1ccc(-c2nc(-c3cccc(C(=O)O)c3)no2)cc1 [NCGC00168767-01],2.48 nM
20,O=C(O)c1cccc(-c2noc(-c3ccccc3C(F)(F)F)n2)c1 [NCGC00168768-02],62.4 nM
